What was measured:
MCT1 = MCT1 (Rattus norvegicus (Rat), UniProt P53987); test: Test A. MCT1 inhibition via lactate uptake in rat brain endothelial (RBE4) cells; type: cell-based; conditions: 14C-lactate uptake
Procedure: Test A. MCT1 Inhibition Via Lactate Uptake Rat Brain Endothelial Cells
The entire lactate uptake studies for the inhibition of MCT1 were carried out on RBE4 (Rat Brain Endothelial 4) cells. The expression of MCT1 on these cells was confirmed by Western Blotting. The cells were plated approximately 20-24 hours before the experiment, the number of cells being approximately 10^5 cells per well. The test compounds were dissolved in DMSO and diluted 1000 times using a solution of HEPES buffer (pH 7.43) which consists of 3 μM ^14C-Lactate and 2 μM L-Lactate. The cells were washed twice with 500 μL of HEPES buffer and the cells were allowed to equilibrate for 15 minutes at 37° C. The HEPES buffer was removed and 250 μL of the test sample was added in triplicates. This was repeated for all the compounds, including the controls (CHC and DMSO). After 15 minutes, the compounds were removed from the well and 500 μL of ice-cold stop buffer (0.1 mM CHC solution in HEPES buffer) was added. The plate was kept on ice. Now, the HEPES buffer in one triplicate was removed and DMSO solution was added and immediately removed and ice-cold stop buffer was added. This was considered as “Zero”. One triplicate was left blank, which was used for protein assay after lysing the cells. The cells were washed twice with ice-cold HEPES buffer and then 250 μL of 0.1M NaOH in 5% Triton-X solution was added and the plate is kept on a shaker for 40 minutes to lyse the cells. 150 μL of the lysed cells was added into 4 mL of the scintillation fluid in a scintillation vial and scintillation count was obtained in disintegrations per minute (dpm). The percent inhibition values were calculated by taking DMSO as minimum. Concentration study (usually 9-12 dilutions) was done to determine the IC50 of each compound.

[1] = Toxicity study in healthy ICR mice (body weight, WBC, RBC); type: in vivo; conditions: for RBC ± SEM / WBC ± SEM: end of day 22
Procedure: 60 ICR mice weighing ˜27 grams were randomly assigned into 5 groups (12 animals, 6 male and 6 female per group), one group being the control group without any drug administration (food only). The drugs were administered twice daily by P.O. or I.P. Group 1 and 3 were administered orally with 50 mg/Kg of Compound 20 and 18 mg/Kg of Compound 14 respectively. Group 2 and 4 mice were injected intraperitoneally with 6.67 mg/Kg of Compound 20 and 5.3 mg/Kg of Compound 14 (dissolved in water) respectively. The body weights of mice were recorded daily for 22 days. At the end of the 22nd day, 3 mice were randomly selected from each group and their blood samples were collected for detailed analysis of white blood cell (WBC) and red blood cell (RBC) counts. The mice were then euthanized with CO2.

[2] = Toxicity study in BALB/c nude mice containing WiDr colorectal adenocarcinoma xenograft (body weight); type: in vivo; conditions: BALB/c nude mice with WiDr xenograft
Procedure: Female BALB/c nude mice weighing ˜20 g were taken and 5.0 10^6 WiDr cancer cells were implanted into their right flanks with a 1:1 mixture of 0.1 mL PBS and matrigel. The tumor was allowed to grow to a size of ˜150 cubic millimeters (14 days). The mice were randomly chosen by chance and assigned into 5 groups (6 mice per group), one group being the control group to which tumor was allowed to grow without any drug administration (food only). The drugs were administered twice daily by P.O. or I.P. Group 1 mice were administered orally with 50 mg/kg of Compound 20. Groups 2, 3 and 4 mice were treated via IP with 10 mg/kg Compound 20, 8 mg/kg of Compound 14 and 238 mg/kg CHC respectively. Body weight changes were recorded every two days for 3 weeks.

[3] = system: WiDr xenograft tumor model; test: Anticancer efficacy in Balb/c nude mice, WiDr xenograft (Example 8); type: in vivo; conditions: BALB/c nude mice with WiDr xenograft, 50-100 mg/Kg p.o. or i.p.
Procedure: Female BALB/c nude mice weighing ˜20 g were taken and 5.0 10^6 WiDr cancer cells were implanted into their right flanks with 1:1 mixture of 0.1 mL PBS and matrigel. The mice were arbitrarily chosen by chance and assigned into 7 groups (6 animals/group) and the treatment was started from the same day of the implantation of cancer cells. Mice in group 1 were orally administered two times daily with 100 mg/Kg of Compound 20. Mice in group 2 were orally administered four times per day with 50 mg/Kg of Compound 20. Group 3 mice were injected intraperitoneally 2 times per day with 100 mg/Kg of Compound 20. Group 4 mice were injected intraperitoneally one time per day with 100 mg/Kg and group 5 mice were injected intraperitoneally 2 times per day with 50 mg/Kg of Compound 20. Group 6 was treated with 0.2 mL of 2% DMSO in water intraperitoneally 4 times daily and group 7 mice were assigned as the control group to which tumor was allowed to grow without any drug administration (food only). The tumor volume was recorded every two days using the formula
[formula] where a is the long diameter of the tumor and b is the short diameter of the tumor. […] The inhibition rate was determined using the formula:
[formula] where C is average tumor weight of control group, T is average tumor weight of test group. […] The inhibition rate was determined using the above formula.

Sequence of MCT1 (P53987 whole entry): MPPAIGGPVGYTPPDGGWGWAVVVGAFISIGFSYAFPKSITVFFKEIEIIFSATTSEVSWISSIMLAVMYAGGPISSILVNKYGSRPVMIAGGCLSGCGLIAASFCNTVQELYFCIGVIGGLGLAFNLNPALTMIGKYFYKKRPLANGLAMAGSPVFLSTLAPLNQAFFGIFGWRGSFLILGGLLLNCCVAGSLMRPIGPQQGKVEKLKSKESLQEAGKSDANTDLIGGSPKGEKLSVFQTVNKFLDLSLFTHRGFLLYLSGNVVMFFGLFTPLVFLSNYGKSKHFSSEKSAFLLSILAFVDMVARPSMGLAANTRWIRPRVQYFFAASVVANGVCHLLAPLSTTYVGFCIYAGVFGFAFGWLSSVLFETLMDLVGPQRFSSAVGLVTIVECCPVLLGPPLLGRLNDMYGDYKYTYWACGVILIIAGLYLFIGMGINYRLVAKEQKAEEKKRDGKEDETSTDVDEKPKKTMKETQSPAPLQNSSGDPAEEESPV
Sequence of MCT1 (P26453 141-388 partner): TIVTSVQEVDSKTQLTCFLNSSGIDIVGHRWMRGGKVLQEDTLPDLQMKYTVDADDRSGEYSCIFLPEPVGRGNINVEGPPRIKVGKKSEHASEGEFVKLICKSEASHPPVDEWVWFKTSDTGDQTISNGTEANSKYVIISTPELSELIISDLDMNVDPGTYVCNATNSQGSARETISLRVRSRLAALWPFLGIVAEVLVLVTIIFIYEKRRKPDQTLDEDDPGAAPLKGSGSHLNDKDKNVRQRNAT

SMILES: COc1cc(N(c2ccccc2)c2ccccc2)ccc1/C=C(\C#N)C(=O)O [Compound 20]
- IC50 (MCT1): 0.008 µM
- Weight in grams (Day 0) ([1]; 6.67 mg/kg i.p. twice daily): 26.98 grams
- Weight in grams (Day 22) ([1]; 6.67 mg/kg i.p. twice daily): 33.54 grams
- RBC ± SEM ([1]; 6.67 mg/kg i.p. twice daily): 1.82 ± 0.05 10^13/L
- WBC ± SEM ([1]; 6.67 mg/kg i.p. twice daily): 3.83 ± 0.38 10^10/L
- Weight in grams (Day 0) ([1]; 50 mg/kg p.o. twice daily): 26.91 grams
- Weight in grams (Day 22) ([1]; 50 mg/kg p.o. twice daily): 32.61 grams
- RBC ± SEM ([1]; 50 mg/kg p.o. twice daily): 1.75 ± 0.06 10^13/L
- WBC ± SEM ([1]; 50 mg/kg p.o. twice daily): 4.10 ± 0.3 10^10/L
- Weight in grams (Day 0) ([2]; 10 mg/kg i.p. twice daily): 21.93 grams
- Weight in grams (Day 22) ([2]; 10 mg/kg i.p. twice daily): 23.38 grams
- Weight in grams (Day 0) ([2]; 50 mg/kg p.o. twice daily): 21.85 grams
- Weight in grams (Day 22) ([2]; 50 mg/kg p.o. twice daily): 23.01 grams
- systemic toxicity (inference from Example 8) [3]: without much systemic toxicity
